Inconclusive results and toxic doses are left out. No stated cut-off is given here; in the data, active means T/C of 150% or more; inactive means T/C below 125%.
Test system: L1210 leukemia ip in BDF1 mice, survival T/C
Experiment: NCI In Vivo Anticancer Drug Screen. Data for tumor model L1210 Leukemia (intraperitoneal) in B6D2F1 (BDF1) mice
Conditions: endpoint: mean survival time, higher = longer survival
Procedure, shortened: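 Transplanted-tumor mice were given test agent; controls received vehicle only. Survival readings from the two groups were divided (treated over control).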

[1] = dose: 100.0 mg/kg/injection, schedule: Q01DX009 (ip), vehicle: Klucel (hydroxypropylcellulose) (HPC)
[2] = dose: 100.0 mg/kg/injection, schedule: Q04DX003 (ip), vehicle: Klucel (hydroxypropylcellulose) (HPC)
[3] = dose: 200.0 mg/kg/injection, schedule: Q01DX009 (ip), vehicle: Klucel (hydroxypropylcellulose) (HPC)
[4] = dose: 200.0 mg/kg/injection, schedule: Q04DX003 (ip), vehicle: Klucel (hydroxypropylcellulose) (HPC)
[5] = dose: 400.0 mg/kg/injection, schedule: Q01DX009 (ip), vehicle: Klucel (hydroxypropylcellulose) (HPC)
[6] = dose: 400.0 mg/kg/injection, schedule: Q04DX003 (ip), vehicle: Klucel (hydroxypropylcellulose) (HPC)
[7] = dose: 100.0 mg/kg/injection, schedule: Q01DX001 (ip), vehicle: carboxymethylcellulose (CMC)
[8] = dose: 200.0 mg/kg/injection, schedule: Q01DX001 (ip), vehicle: carboxymethylcellulose (CMC)
[9] = dose: 100.0 mg/kg/injection, schedule: Q01DX001 (ip), vehicle: saline
[10] = dose: 200.0 mg/kg/injection, schedule: Q01DX001 (ip), vehicle: saline
[11] = dose: 400.0 mg/kg/injection, schedule: Q01DX001 (ip), vehicle: saline
[12] = dose: 50.0 mg/kg/injection, schedule: Q01DX001 (ip), vehicle: saline
[13] = dose: 100.0 mg/kg/injection, schedule: Q01DX001 (ip), vehicle: Klucel (hydroxypropylcellulose) (HPC)
[14] = dose: 200.0 mg/kg/injection, schedule: Q01DX001 (ip), vehicle: Klucel (hydroxypropylcellulose) (HPC)
[15] = dose: 400.0 mg/kg/injection, schedule: Q01DX001 (ip), vehicle: Klucel (hydroxypropylcellulose) (HPC)

Measured: T/C

CCOC1=CCN(S(=O)(=O)c2ccc(C)cc2)c2ccc(OC)cc21
inactive: [1] 100 % of control | [2] 104 % of control | [3] 96 % of control | [4] 94 % of control | [5] 89 % of control | [6] 98 % of control

Cc1ccc(C(C)O)cc1 (configuration not stated)
inactive: dose: 100.0 mg/kg/injection, schedule: Q04DX002 (ip), vehicle: Klucel (hydroxypropylcellulose) (HPC) 98 % of control | dose: 200.0 mg/kg/injection, schedule: Q04DX002 (ip), vehicle: Klucel (hydroxypropylcellulose) (HPC) 98 % of control | dose: 400.0 mg/kg/injection, schedule: Q04DX002 (ip), vehicle: Klucel (hydroxypropylcellulose) (HPC) 98 % of control

CC1CCC2(CC1)CCN(CCCN(C)C)CC2
inactive: dose: 15.0 mg/kg/injection, schedule: Q01DX015 (ip), vehicle: saline 102 % of control | dose: 30.0 mg/kg/injection, schedule: Q01DX015 (ip), vehicle: saline 102 % of control | dose: 60.0 mg/kg/injection, schedule: Q01DX015 (ip), vehicle: saline 100 % of control | dose: 120.0 mg/kg/injection, schedule: Q01DX015 (ip), vehicle: saline 104 % of control | dose: 200.0 mg/kg/injection, schedule: Q01DX015 (ip), vehicle: saline 107 % of control

C(=N\NC1=NCCN1)/c1ccccc1
inactive: dose: 2.5 mg/kg/injection, schedule: Q01DX009 (ip), vehicle: saline 101 % of control | dose: 5.0 mg/kg/injection, schedule: Q01DX009 (ip), vehicle: saline 97 % of control | dose: 5.0 mg/kg/injection, schedule: Q04DX003 (ip), vehicle: saline 97 % of control | dose: 10.0 mg/kg/injection, schedule: Q01DX001 (ip), vehicle: saline 105 % of control | dose: 10.0 mg/kg/injection, schedule: Q01DX009 (ip), vehicle: saline 93 % of control | dose: 10.0 mg/kg/injection, schedule: Q04DX003 (ip), vehicle: saline 94 % of control | dose: 20.0 mg/kg/injection, schedule: Q01DX001 (ip), vehicle: saline 104 % of control | dose: 20.0 mg/kg/injection, schedule: Q04DX003 (ip), vehicle: saline 97 % of control

COC(=O)CSc1nn2nnnc2c2ccccc12
inactive: dose: 50.0 mg/kg/injection, schedule: Q04DX003 (ip), vehicle: saline 95 % of control | dose: 100.0 mg/kg/injection, schedule: Q04DX003 (ip), vehicle: saline 103 % of control | dose: 200.0 mg/kg/injection, schedule: Q04DX003 (ip), vehicle: saline 98 % of control

CC(=O)Nc1ccc(Br)cc1
inactive: dose: 50.0 mg/kg/injection, schedule: Q01DX001 (ip), vehicle: carboxymethylcellulose (CMC) 92 % of control | [7] 93 % of control | [1] 103 % of control | [2] 98 % of control | [8] 93 % of control | [3] 113 % of control | [4] 104 % of control | [6] 106 % of control

O=[N+]([O-])c1cccc(S(=O)(=O)Nc2cccc(C(F)(F)F)c2)c1
inactive: dose: 100.0 mg/kg/injection, schedule: Q01DX009 (ip), vehicle: saline 96 % of control | dose: 200.0 mg/kg/injection, schedule: Q01DX009 (ip), vehicle: saline 104 % of control | dose: 400.0 mg/kg/injection, schedule: Q01DX009 (ip), vehicle: saline 96 % of control

CC(C)CC(=O)Cc1ccccc1
inactive: [9] 105 % of control | [10] 105 % of control | [11] 105 % of control

O=S(=O)(O)c1ccc(-c2ccccc2)cc1
inactive: dose: 50.0 mg/kg/injection, schedule: Q01DX009 (ip), vehicle: Klucel (hydroxypropylcellulose) (HPC) 106 % of control | [1] 94 % of control | [2] 89 % of control | [4] 94 % of control

N#Cc1ccc(OCCCCOc2ccc([N+](=O)[O-])cc2Cl)cc1
inactive: [1] 91 % of control | [3] 95 % of control | [5] 101 % of control

Cc1cc(C)c2cc3cccc[n+]3cc2c1
inactive: dose: 2.0 mg/kg/injection, schedule: Q01DX015 (ip), vehicle: saline 100 % of control | dose: 4.0 mg/kg/injection, schedule: Q01DX001 (ip), vehicle: carboxymethylcellulose (CMC) 105 % of control | dose: 4.0 mg/kg/injection, schedule: Q01DX015 (ip), vehicle: saline 107 % of control | dose: 8.0 mg/kg/injection, schedule: Q01DX001 (ip), vehicle: carboxymethylcellulose (CMC) 107 % of control | dose: 16.0 mg/kg/injection, schedule: Q01DX001 (ip), vehicle: carboxymethylcellulose (CMC) 107 % of control

COc1ccc(C(C)=O)cc1CCC=O
inactive: [7] 97 % of control | [8] 97 % of control | dose: 400.0 mg/kg/injection, schedule: Q01DX001 (ip), vehicle: carboxymethylcellulose (CMC) 97 % of control

CCOCCN1C=C/C(=C/C=C/c2cc[n+](CCOCC)c3ccccc23)c2ccccc21
inactive: dose: 0.31 mg/kg/injection, schedule: Q04DX003 (ip), vehicle: saline 98 % of control | dose: 0.45 mg/kg/injection, schedule: Q01DX009 (ip), vehicle: saline 104 % of control | dose: 0.62 mg/kg/injection, schedule: Q04DX003 (ip), vehicle: saline 121 % of control | dose: 0.9 mg/kg/injection, schedule: Q01DX009 (ip), vehicle: saline 118 % of control | dose: 1.25 mg/kg/injection, schedule: Q01DX001 (ip), vehicle: saline 96 % of control | dose: 1.25 mg/kg/injection, schedule: Q04DX003 (ip), vehicle: saline 111 % of control | dose: 1.8 mg/kg/injection, schedule: Q04DX003 (ip), vehicle: saline 98 % of control

CC(C)OC(=O)c1cc(O)c(O)c(O)c1
inactive: dose: 75.0 mg/kg/injection, schedule: Q01DX001 (ip), vehicle: saline 102 % of control | dose: 150.0 mg/kg/injection, schedule: Q01DX001 (ip), vehicle: saline 94 % of control | dose: 300.0 mg/kg/injection, schedule: Q01DX001 (ip), vehicle: saline 94 % of control

O=C(N/C(=C/c1ccc([N+](=O)[O-])cc1)C(=O)c1ccccc1)c1ccc([N+](=O)[O-])cc1
inactive: [12] 101 % of control | [9] 103 % of control | [10] 97 % of control | [11] 90 % of control

Cc1nc(N)nc(N)c1CCCOc1ccc(N)cc1
inactive: [13] 103 % of control | [14] 97 % of control | [15] 100 % of control

OCCCCCCCCCCO
inactive: dose: 100.0 mg/kg/injection, schedule: Q01DX009 (ip), vehicle: carboxymethylcellulose (CMC) 104 % of control | dose: 200.0 mg/kg/injection, schedule: Q01DX009 (ip), vehicle: carboxymethylcellulose (CMC) 106 % of control | dose: 400.0 mg/kg/injection, schedule: Q01DX009 (ip), vehicle: carboxymethylcellulose (CMC) 98 % of control

c1ccc2c(c1)[nH]c1cc3ccncc3cc12
inactive: [12] 100 % of control | [13] 94 % of control | [9] 94 % of control | [2] 93 % of control | [14] 96 % of control | [10] 98 % of control | [4] 93 % of control | [15] 92 % of control | [11] 96 % of control | [6] 91 % of control

CN(C)c1ccc(CNc2cccc(Cl)c2Cl)cc1
inactive: [2] 94 % of control | [4] 96 % of control | [6] 97 % of control

COC(=O)C(Nc1ccc([N+](=O)[O-])cc1[N+](=O)[O-])C(C)O (configuration not stated)
inactive: dose: 100.0 mg/kg/injection, schedule: Q01DX001 (ip), vehicle: other 104 % of control | dose: 200.0 mg/kg/injection, schedule: Q01DX001 (ip), vehicle: other 101 % of control | dose: 400.0 mg/kg/injection, schedule: Q01DX001 (ip), vehicle: other 111 % of control

O=C1NNCc2c1sc1ccccc21
inactive: [9] 98 % of control | [10] 98 % of control | [11] 102 % of control

CC(C)(C)C(=O)CC(=O)C(C)(C)C.CC(C)(C)C(=O)CC(=O)C(C)(C)C.CC(C)(C)C(=O)CC(=O)C(C)(C)C.CC(C)(C)C(=O)CC(=O)C(C)(C)C.[Zr]
inactive: [1] 96 % of control | [2] 94 % of control | [3] 97 % of control | [4] 89 % of control | [5] 96 % of control | [6] 101 % of control

CCO/C=N/c1onc(C)c1C#N
inactive: dose: 100.0 mg/kg/injection, schedule: Q04DX003 (ip), vehicle: carboxymethylcellulose (CMC) 102 % of control | dose: 200.0 mg/kg/injection, schedule: Q04DX003 (ip), vehicle: carboxymethylcellulose (CMC) 100 % of control | dose: 400.0 mg/kg/injection, schedule: Q04DX003 (ip), vehicle: carboxymethylcellulose (CMC) 90 % of control

From PubChem BioAssay AID248 (DTP/NCI, 2004)
